Laboratory results taken from patent US20240293387A1, “Methods of Treating Fabry Disease in Pediatric Patients” (Amicus Therapeutics, Inc., priority 2021, published 2024).

What was measured:
[1] = system: pediatric subjects with Fabry disease and amenable GLA variants; experiment: AT1001-020 Stage 1 safety in pediatric subjects (interim analysis)
Experimental: All safety analyses were performed using the safety population.
During Stage 1, urinalysis (albumin, protein, specific gravity, pH, and microscopy) was the only laboratory parameter collected at Month 1 and therefore, the only laboratory parameter assessed for the Interim Analysis.

[2] = Population PK (popPK) model of migalastat in adults (NONMEM, bootstrap); parameters: species or system human; conditions: for Typical V2/F, Estimate (% RSE): Fabry disease; for Typical V2/F, Estimate (% RSE) / Typical Q/F, Estimate (% RSE) / Typical V3/F, Estimate (% RSE): body weight ≥ 70 kg
Experimental: A population pharmacokinetics (popPK) model previously developed from healthy adult volunteers and adult patients with Fabry disease after oral migalastat administration. After pooling plasma concentration-time data from Phase I, II, and III studies of AT1001 administered orally in adults using a range of doses from 25 mg to 675 mg and regimens under fasting conditions. […] In contrast, other covariates such as sex, age, drug formulation (solution or suspension vs 25 mg capsule vs 150 mg capsule) were not statistically/clinically significant. Since renal function gradually increases from birth and reaches adult levels by the second year of life (Rubin 1949), there are no expected age-dependent changes in eGFR in the pediatric population 2 years and older than adults. Additionally, pediatric patients with Fabry disease usually have a normal renal function or may experience renal hyperfiltration (Hopkin 2008); therefore, weight-based dosing regimens, assuming that pediatrics have a normal renal function, were planned for the simulations in pediatric Fabry patients. NONMEM program was used to develop the population PK model of migalastat in adults using first-order conditional estimation with interaction (FOCE-I). Simulations were conducted using NONMEM to obtain plasma concentration-time; all graphical analyses were performed using R; noncompartmental analysis and pharmacokinetic parameters summaries were conducted using Phoenix WinNonlin. Bootstrapping and visual predictive checks (VPC)s were conducted using Perl-speaks-NONMEM (PsN) R packages of popED and mrgsolve were used in the optimal sampling strategy. […] The overall purpose of the model development was to come up with a model for pediatric extrapolation. […] Moreover, pediatric CLT/F values extrapolated from the non-renal model were higher than the overall CLT/F approach, resulting in higher pediatric doses for achieving equivalent exposures with adults which was a less conservative approach. Therefore, the overall CLT/F scaling approach is more conservative and was chosen for the final model, which is shown in Table 6. The estimated parameters from bootstrap (see Table 6) were nearly identical to those estimated from the original dataset. All parameters were estimated with adequate precision.

[3] = Safety Population (N = 9), Stage 1

## OC[C@H]1NC[C@H](O)[C@@H](O)[C@H]1O [migalastat, (2R,3S,4R,5S)-2-(hydroxymethyl) piperdine-3,4,5-triol]
[1]; Month 1
  Changes in mean values from baseline for urinalysis parameters: no clinically meaningful changes
[1]; Safety Population (N = 9)
  Subjects with urine pH from normal at baseline to high at Month 1: Three
[1]; [3]
  Number of subjects discontinued due to TEAEs: 0 n (%)
  Number of subjects with AEs leading to death: 0 n (%)
  Number of subjects with TEAEs: 5 (55.6) n (%)
  Number of subjects with related TEAEs: 1 (11.1) n (%)
  Number of subjects with treatment-emergent SAEs: 0 n (%)
[1]; Safety Population (N = 9), Stage 1, 123 mg capsule QOD
  Number of TEAEs: 6 n
[1]; Safety Population, Stage 1
  Drug eruption, Number of Events: 1 (16.7) n (%)
  Drug eruption, Number of Subjects: 1 (11.1) n (%)
  Headache, Number of Events: 1 (16.7) n (%)
  Headache, Number of Subjects: 1 (11.1) n (%)
  Infections and infestations, Number of Events: 4 (66.7) n (%)
  Infections and infestations, Number of Subjects: 4 (44.4) n (%)
  Nervous system disorders, Number of Events: 1 (16.7) n (%)
  Nervous system disorders, Number of Subjects: 1 (11.1) n (%)
  Pharyngitis, Number of Events: 1 (16.7) n (%)
  Pharyngitis, Number of Subjects: 1 (11.1) n (%)
  Skin and subcutaneous tissue disorders, Number of Events: 1 (16.7) n (%)
  Skin and subcutaneous tissue disorders, Number of Subjects: 1 (11.1) n (%)
  Upper respiratory tract infection, Number of Events: 3 (50.0) n (%)
  Upper respiratory tract infection, Number of Subjects: 3 (33.3) n (%)
[1]; Stage 1
  Potentially clinically significant abnormalities in urinalysis parameters: no potentially clinically significant abnormalities
[1]; Stage 1, 123 mg, pediatric patients aged ≥12 to 16 years
  New safety findings: No new safety findings
[2]; Bootstrap
  EGFR-related exponential index on CL/F, Estimate (% RSE): 0.925 (5.25%);
  Fractional Change in V2/F in subjects without Fabry disease (decrease in V2/F), Estimate (% RSE): −0.305 (12.3%);
  Fractional Change in total CL/F in subjects without Fabry disease (decrease in total CL/F), Estimate (% RSE): −0.151 (23.5%);
  Ka (intercept), Estimate (% RSE): 0.256 (8.60%); h^−1
  Ka (slope), Estimate (% RSE): 0.282 (7.45%);
  Lag time, Estimate (% RSE): 0.176 (4.52%); h
  Typical V2/F, Estimate (% RSE): 69.7 (4.8%); L
  Typical Q/F, Estimate (% RSE): 1.01 (4.59%); L/h
  Typical V3/F, Estimate (% RSE): 27.5 (11.9%); L
[2]; NONMEM
  EGFR-related exponential index on CL/F, Estimate (% RSE): 0.922 (5.64%);
  Fractional Change in V2/F in subjects without Fabry disease (decrease in V2/F), Estimate (% RSE): −0.306 (12.8%);
  Fractional Change in total CL/F in subjects without Fabry disease (decrease in total CL/F), Estimate (% RSE): 0.150 (24.9%);
  Ka (intercept), Estimate (% RSE): 0.256 (9.41%); h^−1
  Ka (slope), Estimate (% RSE): 0.284 (9.12%);
  Lag time, Estimate (% RSE): 0.175 (4.65%); h
  Typical V2/F, Estimate (% RSE): 70.1 (5.29%); L
  Typical Q/F, Estimate (% RSE): 1.00 (5.17%); L/h
  Typical V3/F, Estimate (% RSE): 27.5 (11.7%); L
